Holding throughout (test): Cell viability assay
For assay [1], the system named is HMLER CD24^low/CD44^high cells. It counts as cell-based, human. Conditions: 72 h.
Assay [2] has as its system HMLER CD24^high/CD44^low cells. It counts as cell-based. Conditions: Homo sapiens, Epithelial cell, 72 h, read-out: Antiproliferative activity IC50, HMLER CD24^high/CD44^low.
Assay [3] has as its system MCF10A cells. It counts as cell-based. The conditions noted are these: Homo sapiens, MCF-10A, 72 h, read-out: Antiproliferative activity IC50, MCF10A.

`CC[C@@H](C(=O)[C@@H](C)[C@@H](O)[C@H](C)[C@@H]1O[C@@H]([C@@H](CC)C(=O)O)CC[C@@H]1C)[C@H]1O[C@]2(C=C[C@@H](O)[C@]3(CC[C@@](C)([C@H]4CC[C@](O)(CC)[C@H](C)O4)O3)O2)[C@H](C)C[C@@H]1C` [Sal, salinomycin]: the “SI (HMLER) = IC50(HMLER CD24^high/CD44^low)/IC50(HMLER CD24^low/CD44^high)” value in assay [1] (selectivity for the mesenchymal state) is reported as 3.1. Also, the IC50 in assay [1] (Homo sapiens, read-out: Antiproliferative activity IC50, HMLER CD24^low/CD44^high) was determined as 1.39 ± 0.1 µM; in assay [2], 4.36 ± 0.5 µM; in assay [3], 1.13 ± 0.14 µM.

Values taken from paper PMC9164233 (ACS Organic & Inorganic Au, 2022).
